Structures are written as SMILES.

In the test the test system is myeloproliferative diseases. Description: Treatment of patients with myeloproliferative diseases. The format is in vivo, human. As to conditions: for clinical outcome of therapy (spleen, blood counts, constitutional symptoms): therapy with the JAK or HDAC inhibitor, patients. On the procedure:
4-(Amino)-2-(2,6-dioxo(3-piperidyl))-isoindoline-1,3-dione (Pomalidomide or Actimid™) is orally administered to patients with myeloproliferative diseases in an amount of 0.1 to 10 mg per day in combination with prednisone, JAK1 inhibitor (e.g., INCB018424), JAK2 inhibitor (e.g., SB11518, XL019, TG101348, and INCB018424), FLT3 inhibitor (e.g., TG101348), BCL2 inhibitor (e.g., GX15-070MS) and/or HDAC inhibitor (e.g., ITF2357).

Turning to `Nc1cccc2c1C(=O)N(C1CCC(=O)NC1=O)C2=O` (stereo not shown) [4-(Amino)-2-(2,6-dioxo(3-piperidyl))-isoindoline-1,3-dione], the “efficacy in treating myeloproliferative diseases” value (oral, 0.1 to 10 mg per day, in combination with prednisone, JAK1, JAK2, FLT3, BCL2 and/or HDAC inhibitor) was “effective in treating myeloproliferative diseases”.

Regarding `N#CC[C@H](C1CCCC1)n1cc(-c2ncnc3[nH]ccc23)cn1` [INCB018424], the “clinical outcome of therapy (spleen, blood counts, constitutional symptoms)” value (“clinical outcome of therapy” for short) was “dramatic spleen shrinkage and improvement in constitutional symptoms”.

Consider `CCN(CC)Cc1ccc2cc(COC(=O)Nc3ccc(C(=O)NO)cc3)ccc2c1` [ITF2357], for which the “clinical outcome of therapy” value was “improvement in constitutional symptoms, spleen size and some hematologic responses”.

`O=C(Nc1ccc(-c2ccnc(Nc3ccc(N4CCOCC4)cc3)n2)cc1)C1CCCN1` (stereo not shown) [XL019]: the “clinical outcome of therapy” value was “reductions in splenomegaly and leukocytosis, stabilization of hemoglobin counts, improvements in blast counts, and resolution or improvement in generalized constitutional symptoms”.

The record behind these values is US8034831B2, “Methods for the treatment and management of myeloproliferative diseases using 4-(amino)-2-(2,6-Dioxo(3-piperidyl)-isoindoline-1,3-dione in combination with other therapies” (Celgene Corporation, priority 2002, dated 2011).
